Numbers after ± are expanded uncertainties.
Conditions: Crystal; visual observation

Row | Normal melting temperature [°C] | SMILES
1 | 91.7 ± 2.6 | CC1=C(NCc2ccccc2)C(=O)c2ccccc2C1=O [2-(benzylamino)-3-methylnaphthalene-1,4-dione]
2 | 92.6 ± 1.6 | CC1=C(NCCc2ccccc2)C(=O)c2ccccc2C1=O [3-(phenethylamino)-2-methylnaphthalene-1,4-dione]

Source: the NIST ThermoML archive (doi:10.1016/j.jct.2016.08.016)
